Data from article PMC8070173, “Phenelzine and Amoxapine Inhibit Tyramine and d-Glucuronic Acid Catabolism in Clinically Significant Salmonella in A Serotype-Independent Manner” (Pathogens, 2021).

Target: T1, β-glucuronidase (GUS) (Escherichia coli, UniProt P05804)
T1 construct: gene uidA; purified GUS encoded by E. coli (G8420-25KU, Sigma-Aldrich)
Experiment: colorimetric PNPG hydrolysis (p-nitrophenol release) with purified enzyme; complete inhibition at […]
Assay type: biochemical

T1 sequence (P05804 whole entry): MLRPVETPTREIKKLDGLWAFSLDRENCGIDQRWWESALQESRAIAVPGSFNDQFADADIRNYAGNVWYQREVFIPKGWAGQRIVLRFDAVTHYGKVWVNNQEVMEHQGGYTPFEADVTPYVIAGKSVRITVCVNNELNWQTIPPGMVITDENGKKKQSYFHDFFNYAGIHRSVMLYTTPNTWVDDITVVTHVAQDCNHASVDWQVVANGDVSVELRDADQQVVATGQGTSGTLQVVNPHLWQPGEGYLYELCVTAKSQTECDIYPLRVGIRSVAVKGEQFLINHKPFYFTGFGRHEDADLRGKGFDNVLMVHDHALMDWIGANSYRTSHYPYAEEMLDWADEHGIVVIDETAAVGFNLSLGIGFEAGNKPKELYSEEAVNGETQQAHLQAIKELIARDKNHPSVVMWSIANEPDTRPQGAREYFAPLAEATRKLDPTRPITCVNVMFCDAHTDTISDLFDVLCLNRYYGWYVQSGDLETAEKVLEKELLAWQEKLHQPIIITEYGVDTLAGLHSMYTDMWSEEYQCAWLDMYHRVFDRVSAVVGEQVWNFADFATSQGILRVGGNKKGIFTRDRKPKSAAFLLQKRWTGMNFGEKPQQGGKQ

## Clc1ccc2c(c1)C(N1CCNCC1)=Nc1ccccc1O2 [amoxapine]
  colorimetric PNPG hydrolysis (p-nitrophenol release) with purified enzyme; compl: 50 µM
